Reference: ChEMBL document CHEMBL1150665, “Screening of ubiquitous plant constituents for COX-2 inhibition with a scintillation proximity based assay” (J Nat Prod, 2002)
The source made the active and inactive calls. No cut-off for these calls is given here.

Assays:
[1] = target: T1, Prostaglandin G/H synthase 2 (Homo sapiens) (UniProt P35354); details: at 100 µM
T1 sequence (whole entry): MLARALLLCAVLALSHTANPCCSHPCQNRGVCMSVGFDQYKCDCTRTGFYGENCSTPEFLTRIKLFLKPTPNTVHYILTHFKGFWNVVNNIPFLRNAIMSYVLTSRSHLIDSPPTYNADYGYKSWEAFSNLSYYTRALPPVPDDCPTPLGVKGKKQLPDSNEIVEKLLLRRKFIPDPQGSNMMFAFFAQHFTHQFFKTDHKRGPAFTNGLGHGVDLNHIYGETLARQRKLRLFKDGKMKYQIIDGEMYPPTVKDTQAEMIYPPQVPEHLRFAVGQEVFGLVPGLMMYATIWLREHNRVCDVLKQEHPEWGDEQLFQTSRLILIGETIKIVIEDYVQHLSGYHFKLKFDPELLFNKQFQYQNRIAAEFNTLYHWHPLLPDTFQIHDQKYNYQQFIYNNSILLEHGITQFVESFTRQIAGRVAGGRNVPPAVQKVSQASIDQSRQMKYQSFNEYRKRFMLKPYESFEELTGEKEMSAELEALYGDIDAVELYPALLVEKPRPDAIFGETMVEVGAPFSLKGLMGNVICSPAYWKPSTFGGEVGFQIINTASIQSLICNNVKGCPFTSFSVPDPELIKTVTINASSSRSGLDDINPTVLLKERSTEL
Description: Inhibition of COX2 at 100 uM by scintillation proximity assay

[2] = target: T1, Prostaglandin G/H synthase 2 (Homo sapiens); experiment: Inhibition of COX2 at 10 uM by scintillation proximity assay
[3] = target: T2, Prostaglandin G/H synthase 2 (Homo sapiens, UniProt P35354)
T2 sequence (P35354 whole entry): T1 sequence (whole entry)
Description: Inhibition of COX2 by scintillation proximity assay

[4] = target: T2, Prostaglandin G/H synthase 2; experiment: Inhibition of COX2
[5] = target: T2, Prostaglandin G/H synthase 2; experiment: Inhibition of COX2 in LPS-stimulated bone marrow derived mast cells
[6] = substrate: CCCCC/C=C\C/C=C\C/C=C\C/C=C\CCCC(=O)O; experiment: Activity of COX2

In the case of `OC[C@H]1O[C@@H](Oc2ccc(O)cc2)[C@H](O)[C@@H](O)[C@@H]1O`, the inhibition [1] is reported as < 30%.

With `C[C@@H]1O[C@@H](O[C@H]2C[C@@H](O)[C@]3(CO)[C@H]4[C@H](O)C[C@]5(C)[C@@H](C6=CC(=O)OC6)CC[C@]5(O)[C@@H]4CC[C@]3(O)C2)[C@H](O)[C@H](O)[C@H]1O` the inhibition [1] was < 30%.

With `CC12CCC(CC1=O)C2(C)C` (stereo not drawn) the inhibition [1] was < 30%.

In the case of `O=C/C=C/c1ccccc1`, the Activity [2] is reported as “inactive” and the inhibition [1] is reported as 45%.

In the case of `c1ccc(-c2ccc(-c3ccccc3)cc2)cc1` [TANNIN PYROGALLOL], the IC50 [3] is reported as 144 µM.

For `O=C(/C=C/c1ccc(O)c(O)c1)O[C@@H]1C[C@](O)(C(=O)O)C[C@@H](O)[C@H]1O`, the inhibition [1] was < 30%.

For `O=C(O)/C=C/c1ccc(O)cc1`, the inhibition [1] was < 30%.

In the case of `O=C(O)c1cccnc1`, the inhibition [1] is reported as < 30%.

`O=C(O)C1=C[C@@H](O)[C@@H](O)[C@H](O)C1` was tested, and the inhibition [1] was < 30%.

With `CC[C@H]1CN2CCc3cc(OC)c(OC)cc3[C@@H]2C[C@@H]1C[C@H]1NCCc2cc(OC)c(OC)cc21` the inhibition [1] was < 30%.

In the case of `Oc1ccc(O)cc1`, the inhibition [1] is reported as < 30%.

In the case of `CC(C)=CCCC(C)CCO` (racemic), the inhibition [1] is reported as < 30%.

In the case of `O=c1c(O)c(-c2cc(O)c(O)c(O)c2)oc2cc(O)cc(O)c12`, the Activity [2] is reported as “inactive” and the inhibition [1] is reported as 62%.

`Oc1cccc(O)c1O` was tested, and the Activity [2] was “inactive” and the inhibition [1] was 57%.

In the case of `O=c1ccc2cc(O[C@@H]3O[C@H](CO)[C@@H](O)[C@H](O)[C@H]3O)c(O)cc2o1`, the inhibition [1] is reported as < 30%.

In the case of `C[n+]1cccc(C(=O)[O-])c1`, the inhibition [1] is reported as < 30%.

For `O=c1ccc2ccc(O)cc2o1`, the inhibition [1] was < 30%.

In the case of `COc1cc2ccc(=O)oc2cc1O`, the inhibition [1] is reported as < 30%.

`CC12CCC(CC1)C(C)(C)O2` was tested, and the inhibition [1] was < 30%.

With `O=C(O)/C=C/c1ccc(O)c(O)c1` the Activity [2] was “inactive” and the inhibition [1] was 32%.

With `C[N+]1(C)CCC[C@H]1C(=O)[O-]` the inhibition [1] was < 30%.

For `CN1[C@@H]2CC[C@H]1C[C@@H](OC(=O)C(CO)c1ccccc1)C2` (mixture of isomers), the inhibition [1] was < 30%.

For `C[C@@H]1O[C@@H](OC[C@H]2O[C@@H](Oc3c(-c4ccc(O)c(O)c4)oc4cc(O)cc(O)c4c3=O)[C@H](O)[C@@H](O)[C@@H]2O)[C@H](O)[C@H](O)[C@H]1O`, the inhibition [1] was < 30%.

In the case of `C[C@H]1[C@H](C)CC[C@]2(C(=O)O)CC[C@]3(C)C(=CC[C@@H]4[C@@]5(C)CC[C@H](O)C(C)(C)[C@@H]5CC[C@]43C)[C@H]12` [URSOLIC ACID], the IC50 [3] is reported as 86 µM.

With `CC(C)=CCC[C@](C)(O)[C@H]1CC=C(C)CC1` the inhibition [1] was < 30%.

In the case of `O=C(O)[C@]1(O)C[C@H](O)[C@@H](O)[C@@H](O)C1`, the inhibition [1] is reported as < 30%.

In the case of `O=c1cc(-c2ccc(O)c(O)c2)oc2cc(O)cc(O)c12` [LUTEOLIN], the inhibition [1] is reported as < 30%, the IC50 [4] is reported as < 349 µM and the IC50 [5] is reported as 8.73 µM.

For `O=c1cc(-c2ccccc2)oc2cc(O)cc(O)c12`, the inhibition [1] was < 30%.

`O=C(O)c1cc(O)c2c(c1)[C@@H]([C@H]1c3cc(C(=O)O)cc(O)c3C(=O)c3c(O[C@@H]4O[C@H](CO)[C@@H](O)[C@H](O)[C@H]4O)cccc31)c1cccc(O[C@@H]3O[C@H](CO)[C@@H](O)[C@H](O)[C@H]3O)c1C2=O` was tested, and the inhibition [1] was < 30%.

`C=C(C)[C@H]1CC=C(C)CC1` was tested, and the inhibition [1] was < 30%.

For `O=c1ccc2ccccc2o1`, the inhibition [1] was < 30%.

With `CC(C)=CCC[C@@H](C)CC=O` the inhibition [1] was < 30%.

With `O=C1C[C@@H](c2ccc(O)cc2)Oc2cc(O)cc(O)c21` the inhibition [1] was < 30%.

`O=C(O)CCCCC1CCSS1` (stereo not drawn) was tested, and the inhibition [1] was < 30%.

`O=C(O)c1cc(O)c(O)c(O)c1` was tested, and the inhibition [1] was < 30%.

For `C=CCc1ccc(O)c(OC)c1`, the Activity [2] was “inactive”.

`Cn1c(=O)c2c(ncn2C)n(C)c1=O` was tested, and the inhibition [1] was < 30%.

In the case of `Cc1ccc(C(C)C)c(O)c1`, the inhibition [1] is reported as < 30%.

`C=C(C)[C@@H]1CC[C@]2(CO)CC[C@]3(C)[C@H](CC[C@@H]4[C@@]5(C)CC[C@H](O)C(C)(C)[C@@H]5CC[C@]43C)[C@@H]12` was tested, and the inhibition [1] was < 30%.

With `CN1[C@@H]2C[C@@H](OC(=O)[C@H](CO)c3ccccc3)C[C@H]1[C@@H]1O[C@H]12` the inhibition [1] was < 30%.

With `O=C(O)C1CCCCN1` (stereo not drawn) the inhibition [1] was < 30%.

For `COc1ccc(C(=O)O)cc1O`, the inhibition [1] was < 30%.

`Cn1c(=O)c2[nH]cnc2n(C)c1=O` was tested, and the inhibition [1] was < 30%.

In the case of `CC(C)[C@@H]1CC[C@@H](C)C[C@H]1O`, the inhibition [1] is reported as < 30%.

With `CC(C)C1=CC2=CC[C@@H]3[C@](C)(CCC[C@@]3(C)C(=O)O)[C@H]2CC1` the inhibition [1] was < 30%.

With `COc1cc([C@@H]2c3cc4c(cc3[C@H](O)[C@H]3COC(=O)[C@H]23)OCO4)cc(OC)c1OC` the inhibition [1] was < 30%.

B1: Prostaglandin G/H synthase 2 (Homo sapiens), P35354 (protein)
chain: T1 sequence (whole entry)
Work on B1 yielded a Km [6] of 1 µM.
